How the values were obtained:
Format in all cases: in vivo
[1] = tested on: redroot pigweed (Amaranthus retroflexus, AMARE); experiment: Pre-emerge test, greenhouse herbicide activity screening; conditions: for Pre-emerge Herbicidal Activity, phytotoxicity rating (0-100), AMARE: rated 14 days after application, 0 = no damage, 100 = complete death; for Pre-emerge Herbicidal Activity AMARE: phytotoxicity rating 0-100, 14 days after application
Outline: (§1)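 Herbicidal damage is scored 0 (none) to 100 (complete plant death) two weeks after a simulated field spray. Rates span 15–1000 g ai/ha, delivered in acetone at 187 l/ha. For post-emergence treatments, plants have 2–3 leaves and the spray carries 0.25% v/v non-ionic surfactant.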

[2] = tested on: barnyardgrass (Echinochloa crus-galli, ECHCG); experiment: as above; conditions: for Pre-emerge Herbicidal Activity, phytotoxicity rating (0-100), ECHCG: rated 14 days after application, 0 = no damage, 100 = complete death; for Pre-emerge Herbicidal Activity ECHCG: phytotoxicity rating 0-100, 14 days after application
Outline: (§2)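 Applied at 15–1000 g ai/ha from acetone in 187 l/ha spray volume. Post-emergence applications included 0.25% v/v non-ionic surfactant and reached plants sown 8–21 days before. Pre-emergence applications were incorporated by surface watering. Efficacy or crop damage was rated on a 0–100 scale after 14 days.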

[3] = tested on: green foxtail (Setaria viridis, SETVI); experiment: as above; conditions: for Pre-emerge Herbicidal Activity, phytotoxicity rating (0-100), SETVI: rated 14 days after application, 0 = no damage, 100 = complete death; for Pre-emerge Herbicidal Activity SETVI: phytotoxicity rating 0-100, 14 days after application
Outline: as §2

[4] = tested on: ivyleaf morningglory (Ipomoea hederacea, IPOHE); experiment: as above; conditions: for Pre-emerge Herbicidal Activity, phytotoxicity rating (0-100), IPOHE: rated 14 days after application, 0 = no damage, 100 = complete death; for Pre-emerge Herbicidal Activity IPOHE: phytotoxicity rating 0-100, 14 days after application
Outline: as §2

[5] = tested on: johnsongrass (Sorghum halepense, SORHA); experiment: as above; conditions: for Pre-emerge Herbicidal Activity, phytotoxicity rating (0-100), SORHA: rated 14 days after application, 0 = no damage, 100 = complete death; for Pre-emerge Herbicidal Activity SORHA: phytotoxicity rating 0-100, 14 days after application
Outline: as §2

[6] = tested on: lambsquarters (Chenopodium album, CHEAL); experiment: as above; conditions: for Pre-emerge Herbicidal Activity, phytotoxicity rating (0-100), CHEAL: rated 14 days after application, 0 = no damage, 100 = complete death; for Pre-emerge Herbicidal Activity CHEAL: phytotoxicity rating 0-100, 14 days after application
Outline: as §2

[7] = tested on: large crabgrass (Digitaria sanguinalis, DIGSA); experiment: as above; conditions: for Pre-emerge Herbicidal Activity, phytotoxicity rating (0-100), DIGSA: rated 14 days after application, 0 = no damage, 100 = complete death; for Pre-emerge Herbicidal Activity DIGSA: phytotoxicity rating 0-100, 14 days after application
Outline: as §2

[8] = tested on: sicklepod (Cassia obtusifolia, CASOB); experiment: as above; conditions: for Pre-emerge Herbicidal Activity, phytotoxicity rating (0-100), CASOB: rated 14 days after application, 0 = no damage, 100 = complete death; for Pre-emerge Herbicidal Activity CASOB: phytotoxicity rating 0-100, 14 days after application
Outline: as §2

[9] = tested on: velvetleaf (Abutilon theophrasti, ABUTH); experiment: as above; conditions: for Pre-emerge Herbicidal Activity, phytotoxicity rating (0-100), ABUTH: rated 14 days after application, 0 = no damage, 100 = complete death; for Pre-emerge Herbicidal Activity ABUTH: phytotoxicity rating 0-100, 14 days after application
Outline: as §2

[10] = tested on: field corn (Zea mays L., var. Dekalb 535, CORN); experiment: Pre-emerge test, crop safety; conditions: for Pre-emerge phytotoxicity rating (0-100), crop damage, CORN: rated 14 days after application, 0 = no damage, 100 = complete death; for Pre-emerge Herbicidal Activity CORN: crop damage rating 0-100, 14 days after application
Outline: (§3)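 Plants grown in 10 cm pots of sandy loam mix received acetone-dissolved compounds through a moving flat-fan nozzle. Doses ranged from 15 to 1000 g ai/ha. Pre-emerge pots were seeded one day earlier, post-emerge pots 8–21 days earlier. Fourteen days on, each pot was graded 0–100 for damage.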

[11] = tested on: upland rice (Oryza sp., var. Tebonnet, RICE); experiment: Pre-emerge test, crop safety; conditions: for Pre-emerge phytotoxicity rating (0-100), crop damage, RICE: rated 14 days after application, 0 = no damage, 100 = complete death; for Pre-emerge Herbicidal Activity RICE: crop damage rating 0-100, 14 days after application
Outline: as §3

[12] = tested on: barnyardgrass (Echinochloa crus-galli, ECHCG); experiment: Post-emerge test, greenhouse herbicide activity screening; conditions: post-emerge, 14 days after application, rating scale 0-100
Outline: as §1

[13] = tested on: green foxtail (Setaria viridis, SETVI); experiment: as above; conditions: post-emerge, 14 days after application, rating scale 0-100
Outline: as §1

[14] = tested on: ivyleaf morningglory (Ipomoea hederacea, IPOHE); experiment: as above; conditions: post-emerge, 14 days after application, rating scale 0-100
Outline: as §1

[15] = tested on: johnsongrass (Sorghum halepense, SORHA); experiment: as above; conditions: post-emerge, 14 days after application, rating scale 0-100
Outline: as §1

[16] = tested on: lambsquarters (Chenopodium album, CHEAL); experiment: as above; conditions: post-emerge, 14 days after application, rating scale 0-100
Outline: as §1

[17] = tested on: large crabgrass (Digitaria sanguinalis, DIGSA); experiment: as above; conditions: post-emerge, 14 days after application, rating scale 0-100
Outline: as §1

[18] = tested on: redroot pigweed (Amaranthus retroflexus, AMARE); experiment: as above; conditions: post-emerge, 14 days after application
Outline: as §1

[19] = tested on: sicklepod (Cassia obtusifolia, CASOB); experiment: as above; conditions: post-emerge, 14 days after application, rating scale 0-100
Outline: as §1

[20] = tested on: velvetleaf (Abutilon theophrasti, ABUTH); experiment: as above; conditions: post-emerge, 14 days after application, rating scale 0-100
Outline: as §1

[21] = tested on: field corn (Zea mays L., var. Dekalb 535, CORN); experiment: Post-emerge test, crop safety; conditions: post-emerge, 14 days after application, rating scale 0-100
Outline: as §2

[22] = tested on: upland rice (Oryza sp., var. Tebonnet, RICE); experiment: Post-emerge test, crop safety; conditions: post-emerge, 14 days after application, rating scale 0-100
Outline: as §2

[23] = 250 g ai/ha, rating scale 0-100

COc1c(Cl)cc(F)c(-n2c(=O)cc(C(F)(F)F)n(C)c2=O)c1NC(=O)C=Cc1ccccc1Cl [2-82]
Pre-emerge Herbicidal Activity, phytotoxicity rating (0-100), AMARE ([1]; 63 g ai/ha): 100
Pre-emerge Herbicidal Activity, phytotoxicity rating (0-100), AMARE ([1]; 250 g ai/ha): 100
Pre-emerge Herbicidal Activity, phytotoxicity rating (0-100), ECHCG ([2]; 63 g ai/ha): 0
Pre-emerge Herbicidal Activity, phytotoxicity rating (0-100), ECHCG ([2]; 250 g ai/ha): 0
Pre-emerge Herbicidal Activity, phytotoxicity rating (0-100), SETVI ([3]; 63 g ai/ha): 80
Pre-emerge Herbicidal Activity, phytotoxicity rating (0-100), SETVI ([3]; 250 g ai/ha): 100
Pre-emerge Herbicidal Activity, phytotoxicity rating (0-100), IPOHE ([4]; 63 g ai/ha): 0
Pre-emerge Herbicidal Activity, phytotoxicity rating (0-100), IPOHE ([4]; 250 g ai/ha): 0
Pre-emerge Herbicidal Activity, phytotoxicity rating (0-100), SORHA ([5]; 63 g ai/ha): 0
Pre-emerge Herbicidal Activity, phytotoxicity rating (0-100), SORHA ([5]; 250 g ai/ha): 20
Pre-emerge Herbicidal Activity, phytotoxicity rating (0-100), CHEAL ([6]; 63 g ai/ha): 100
Pre-emerge Herbicidal Activity, phytotoxicity rating (0-100), CHEAL ([6]; 250 g ai/ha): 100
Pre-emerge Herbicidal Activity, phytotoxicity rating (0-100), DIGSA ([7]; 63 g ai/ha): 30
Pre-emerge Herbicidal Activity, phytotoxicity rating (0-100), DIGSA ([7]; 250 g ai/ha): 80
Pre-emerge Herbicidal Activity, phytotoxicity rating (0-100), CASOB ([8]; 63 g ai/ha): 80
Pre-emerge Herbicidal Activity, phytotoxicity rating (0-100), CASOB ([8]; 250 g ai/ha): 100
Pre-emerge Herbicidal Activity, phytotoxicity rating (0-100), ABUTH ([9]; 63 g ai/ha): 100
Pre-emerge Herbicidal Activity, phytotoxicity rating (0-100), ABUTH ([9]; 250 g ai/ha): 100
Pre-emerge phytotoxicity rating (0-100), crop damage, CORN ([10]; 63 g ai/ha): 0
Pre-emerge phytotoxicity rating (0-100), crop damage, CORN ([10]; 250 g ai/ha): 0
Pre-emerge phytotoxicity rating (0-100), crop damage, RICE ([11]; 63 g ai/ha): 10
Pre-emerge phytotoxicity rating (0-100), crop damage, RICE ([11]; 250 g ai/ha): 10
phytotoxicity rating ECHCG ([12]; 63 g ai/ha): 20
phytotoxicity rating ECHCG ([12]; 250 g ai/ha): 30
phytotoxicity rating SETVI ([13]; 63 g ai/ha): 40
phytotoxicity rating SETVI ([13]; 250 g ai/ha): 50
phytotoxicity rating IPOHE ([14]; 63 g ai/ha): 60
phytotoxicity rating IPOHE ([14]; 250 g ai/ha): 90
phytotoxicity rating SORHA ([15]; 63 g ai/ha): 0
phytotoxicity rating SORHA ([15]; 250 g ai/ha): 30
phytotoxicity rating CHEAL ([16]; 63 g ai/ha): 90
phytotoxicity rating CHEAL ([16]; 250 g ai/ha): 90
phytotoxicity rating DIGSA ([17]; 63 g ai/ha): 0
phytotoxicity rating DIGSA ([17]; 250 g ai/ha): 30
phytotoxicity rating AMARE ([18]; 63 g ai/ha, rating scale 0-100): 100
phytotoxicity rating AMARE [18, 23]: 100
phytotoxicity rating CASOB ([19]; 63 g ai/ha): 100
phytotoxicity rating CASOB ([19]; 250 g ai/ha): 100
phytotoxicity rating ABUTH ([20]; 63 g ai/ha): 100
phytotoxicity rating ABUTH ([20]; 250 g ai/ha): 100
phytotoxicity rating CORN ([21]; 63 g ai/ha): 10
phytotoxicity rating CORN ([21]; 250 g ai/ha): 25
phytotoxicity rating RICE ([22]; 63 g ai/ha): 50
phytotoxicity rating RICE ([22]; 250 g ai/ha): 40

COc1c(Cl)cc(F)c(-n2c(=O)cc(C(F)(F)F)n(C)c2=O)c1NC(=O)OCc1ccc(F)cc1 [4-7]
Pre-emerge Herbicidal Activity AMARE ([1]; 63 g ai/ha): 100
Pre-emerge Herbicidal Activity AMARE ([1]; 250 g ai/ha): 100
Pre-emerge Herbicidal Activity ECHCG ([2]; 63 g ai/ha): 70
Pre-emerge Herbicidal Activity ECHCG ([2]; 250 g ai/ha): 90
Pre-emerge Herbicidal Activity SETVI ([3]; 63 g ai/ha): 100
Pre-emerge Herbicidal Activity SETVI ([3]; 250 g ai/ha): 100
Pre-emerge Herbicidal Activity IPOHE ([4]; 63 g ai/ha): 80
Pre-emerge Herbicidal Activity IPOHE ([4]; 250 g ai/ha): 100
Pre-emerge Herbicidal Activity SORHA ([5]; 63 g ai/ha): 80
Pre-emerge Herbicidal Activity SORHA ([5]; 250 g ai/ha): 95
Pre-emerge Herbicidal Activity CHEAL ([6]; 63 g ai/ha): 100
Pre-emerge Herbicidal Activity CHEAL ([6]; 250 g ai/ha): 100
Pre-emerge Herbicidal Activity DIGSA ([7]; 63 g ai/ha): 100
Pre-emerge Herbicidal Activity DIGSA ([7]; 250 g ai/ha): 100
Pre-emerge Herbicidal Activity CASOB ([8]; 63 g ai/ha): 70
Pre-emerge Herbicidal Activity CASOB ([8]; 250 g ai/ha): 100
Pre-emerge Herbicidal Activity ABUTH ([9]; 63 g ai/ha): 100
Pre-emerge Herbicidal Activity ABUTH ([9]; 250 g ai/ha): 100
Pre-emerge Herbicidal Activity CORN ([10]; 63 g ai/ha): 60
Pre-emerge Herbicidal Activity CORN ([10]; 250 g ai/ha): 95
Pre-emerge Herbicidal Activity RICE ([11]; 63 g ai/ha): 70
Pre-emerge Herbicidal Activity RICE ([11]; 250 g ai/ha): 100
phytotoxicity rating ECHCG ([12]; 63 g ai/ha): 50
phytotoxicity rating ECHCG ([12]; 250 g ai/ha): 100
phytotoxicity rating SETVI ([13]; 63 g ai/ha): 70
phytotoxicity rating SETVI ([13]; 250 g ai/ha): 100
phytotoxicity rating IPOHE ([14]; 63 g ai/ha): 100
phytotoxicity rating IPOHE ([14]; 250 g ai/ha): 100
phytotoxicity rating SORHA ([15]; 63 g ai/ha): 90
phytotoxicity rating SORHA ([15]; 250 g ai/ha): 90
phytotoxicity rating CHEAL ([16]; 63 g ai/ha): 100
phytotoxicity rating CHEAL ([16]; 250 g ai/ha): 100
phytotoxicity rating DIGSA ([17]; 63 g ai/ha): 40
phytotoxicity rating DIGSA ([17]; 250 g ai/ha): 90
phytotoxicity rating AMARE ([18]; 63 g ai/ha, rating scale 0-100 (0 no damage, 100 complete death)): 100
phytotoxicity rating AMARE [18, 23]: 100
phytotoxicity rating CASOB ([19]; 63 g ai/ha): 100
phytotoxicity rating CASOB ([19]; 250 g ai/ha): 100
phytotoxicity rating ABUTH ([20]; 63 g ai/ha): 100
phytotoxicity rating ABUTH ([20]; 250 g ai/ha): 100
phytotoxicity rating CORN (crop damage) ([21]; 63 g ai/ha): 90
phytotoxicity rating CORN (crop damage) ([21]; 250 g ai/ha): 100
phytotoxicity rating RICE (crop damage) ([22]; 63 g ai/ha): 65
phytotoxicity rating RICE (crop damage) ([22]; 250 g ai/ha): 90
